Experiments:
[1] = tested on: selenium-dependent glutathione peroxidase; test: Selenium-dependent glutathione peroxidase activity in tissues of rats fed the diets; assay type: in vivo, male F344 rats
Protocol: (§1) Body weights were recorded weekly until the animals reach 16 wk of age and then every 4 wk. Six vehicle-treated animals randomly chosen from each dietary group while they were consuming experimental and control diets were used for tissue and blood plasma glutathione peroxidase analysis.
Biochemical Determination. For the determination of tissue and blood plasma glutathione peroxidase activity, 6 vehicle-treated animals from each dietary group, while the animals were on experimental and control diets, were used. Before sacrificing the animals, blood was obtained under ether anesthesia by cardiac puncture with a syringe. They were then decapitated,and liver, kidneys, small intestine, and colon were rapidly removed. The liver was perfused with ice-cold normal saline. The small intestine and colon were slit open longitudinally and freed from all the contents, and the mucosa was scraped with a microscope glass slide. The liver and kidneys were trimmed free of connective tissue, minced with scissors, and homogenized for 10 s in 3 volumes of buffer, pH 7.3 (0.25 sucrose-10 mM EDTA-50 mM potassium phosphate) using a Brinkman Polytron at low speed. The colonic and small intestinal mucosal scrapings were immediately placed into 3 volumes of the same buffer and homogenized similarly. The homogenates were centrifuged in a Sorvall RC-2B centrifuge at 10,000×g, 4° C., for 20 min. The supernatant was centrifuged in a Beckman Ultracentrifuge at 100,000×g, 4° C., for 1 h. The resulting cytosol fraction was used for determination of glutathione peroxidase activity and protein.
Glutathione peroxidase activity was determined spectrophotometrically according to a modification of the enzyme-coupled assay procedure of Paglia and Valentine. The reaction mixture consisted of 50 mM potassium phosphate buffer (pH 7.0), 1 mM EDTA, 0.2 mM NADPH, 1 enzyme unit/ml oxidized glutathione-reductase, 1 mM glutathione, and 1.5 mM cumene hydroperoxide in a total volume of 1 ml. The cytosol was added to the above mixture and allowed to incubate 5 min. at room temperature. Total glutathione peroxide was measured with cumene hydroperoxide as a substrate. Selenium-dependent glutathione peroxide was measured with tert-butyl hydroperoxide. The reaction was started with the addition of substrate solution. Absorbance was measured at 340 nm, and activity was measured from the slope of the lines as mol NADPH oxidized/min/mg protein. Blank reactions without cytosol were run simultaneously. Protein concentration in the cytosol fraction was measured by the method of Lowry et al. with bovine serum albumin as standard.
(§2) Statistical Analysis. The data on tumor incidence were analyzed statistically by the x^2 method and Fischer's exact probability test, and tumor multiplicity was analyzed by Student's t test. Biochemical results were analyzed by Student's t test.

[2] = tested on: carcinogenesis induced by chemicals; details: experimental animals; cited from earlier work
[3] = tested on: non-selenium-dependent glutathione peroxidase; test: Non-selenium-dependent glutathione peroxidase activity in tissues of rats fed the diets; assay type: in vivo, male F344 rats; details: among the dietary groups
Protocol: as §1
Biochemical Determination. For the determination of tissue and blood plasma glutathione peroxidase activity, 6 vehicle-treated animals from each dietary group, while the animals were on experimental and control diets, were used. Before sacrificing the animals, blood was obtained under ether anesthesia by cardiac puncture with a syringe. They were then decapitated,and liver, kidneys, small intestine, and colon were rapidly removed. The liver was perfused with ice-cold normal saline. […]
Glutathione peroxidase activity was determined spectrophotometrically according to a modification of the enzyme-coupled assay procedure of Paglia and Valentine. […] Total glutathione peroxide was measured with cumene hydroperoxide as a substrate. Selenium-dependent glutathione peroxide was measured with tert-butyl hydroperoxide. […] Absorbance was measured at 340 nm, and activity was measured from the slope of the lines as mol NADPH oxidized/min/mg protein. […] Protein concentration in the cytosol fraction was measured by the method of Lowry et al. with bovine serum albumin as standard.

[4] = tested on: azoxymethane-induced ear duct tumors; test: AOM-induced ear duct tumor incidence; assay type: in vivo, male F344 rats; details: 25 ppm in diet
From the text: (§3) Experimental Procedure. Male F344 rats received at weaning were quarantined for 10 days and given access to AIN-76A semipurified diet (control diet). They were then be randomly allocated by weight to one of three dietary groups (control diet and 25 ppm BSC and 25 ppm benzylthiocyanate ("BTC") diets). […] Therefore one of our goals was to compare BSC with its sulfur analog BTC. Each dietary group was divided into AOM-treated (27 animals per subgroup) and vehicle-treated (12 animals per subgroup) subgroups and housed in plastic cages with filter tops in the animal holding room under controlled environmental conditions.
(§4) Beginning at 5 wk of age, groups of rats fed the control diet were transferred to diets containing 25 ppm BSC or 25 ppm BTC. At 7 wk of age, the animals in each group, except the vehicle-treated controls, received two weekly s.c. injections of AOM at a dose level of 15 mg/kg body weight/wk. Vehicle controls were treated with an equal volume of normal saline. One wk after AOM or saline treatment, animals receiving the BSC and BTC diets were transferred to the control diets and continued on this diet until the termination of the experiment. The 1-wk delay before transferring to control diet was to ensure complete metabolism and excretion of the carcinogen. The animals receiving the control diet continued on the same diet. The experiment was terminated 34 wk after the last AOM injection.
Both AOM-and vehicle-treated animals were sacrificed by CO2 euthanasia. Following laparotomy, the entire stomach, small intestine, and large intestine were resected and opened longitudinally, and the contents flushed with normal saline. The location, number, and size of the colon and small intestinal tumors were noted grossly under the dissection microscope. All other organs, including liver and kidneys, were also examined grossly for tumors. […]
as §2

[5] = Body weights of male F344 rats fed the experimental diets; assay type: in vivo; details: for Body wt, Initial (Wk 0) / Body wt, wk 4 / Body wt, wk 8 / Body wt, wk 16 / Body wt, wk 22 / Body wt, wk 30 / Body wt, wk 37 (at termination): 25 ppm in diet, Mean ± SD
From the text: as §3, §4, §1

[6] = tested on: azoxymethane-induced colon tumors; test: AOM-induced colon tumor incidence and multiplicity (initiation phase feeding); assay type: in vivo, male F344 rats
From the text: as §3, §4
(§5) Both AOM-and vehicle-treated animals were sacrificed by CO2 euthanasia. Following laparotomy, the entire stomach, small intestine, and large intestine were resected and opened longitudinally, and the contents flushed with normal saline. The location, number, and size of the colon and small intestinal tumors were noted grossly under the dissection microscope. All other organs, including liver and kidneys, were also examined grossly for tumors. Tissues were fixed in 10% buffered formalin, embedded in paraffin blocks, and processed by routine histological methods with the use of eosin and hematoxylin stains.
as §2
(§6) Using the above-identified procedures, a study was made of the effect of feeding benzylselenocyanate and its sulfur analogue, benzylthiocyanate, two (2) weeks before, during and until one (1) week after carcinogen administration (initiation phase) on intestinal carcinogenesis induced by azoxymethane (CAS: 25843-45-2) in male F344 rats.

[7] = General toxicity observation in rats fed the diets; assay type: in vivo, male F344 rats; details: 25 ppm in diet
From the text: as §3, §4, §1

[8] = tested on: azoxymethane-induced small intestinal tumors; test: AOM-induced small intestinal tumor incidence and multiplicity; assay type: in vivo, male F344 rats
From the text: as §3, §4, §5, §2, §6

[9] = tested on: azoxymethane-induced metastasis; test: AOM-induced metastasis; assay type: in vivo, male F344 rats
From the text: as §3, §4, §5

[10] = cited from earlier work
[11] = 25 ppm in diet 5 wk, Mean ± SE (n = 6)
[12] = 25 ppm in diet 2 wk before to 1 wk after AOM
[13] = 25 ppm in diet, 27 (BSC) or 26 (BTC) animals/group

Compound: N#CSCc1ccccc1 [BTC, benzylthiocyanate, reference compound]
- Selenium-dependent glutathione peroxidase activity, Kidney [1, 11]: 0.64 0.30 μmol NADPH oxidized/min/mg protein
- Selenium-dependent glutathione peroxidase activity, Liver [1, 11]: 1.90 0.66 μmol NADPH oxidized/min/mg protein
- Selenium-dependent glutathione peroxidase activity, Plasma [1, 11]: 0.69 0.16 μmol NADPH oxidized/min/mg protein
- Selenium-dependent glutathione peroxidase activity, Colon ([1]; 25 ppm in diet 5 wk, colonic mucosa, Mean ± SE (n = 6)): 0.23 0.06 μmol NADPH oxidized/min/mg protein
- Selenium-dependent glutathione peroxidase activity, Small intestine ([1]; 25 ppm in diet 5 wk, small intestinal mucosa, Mean ± SE (n = 6)): 0.20 0.10 μmol NADPH oxidized/min/mg protein
- Selenium-dependent glutathione peroxidase activity (in words) ([1]; liver and plasma): not affected
- Inhibition of chemically induced carcinogenesis [2]: inhibitor of carcinogenesis induced by chemicals in experimental animals
- Non-selenium-dependent glutathione peroxidase activity (in words) [3]: no differences in the activity of non-selenium-dependent glutathione peroxidase activity among the dietary groups
- Number of animals with ear duct tumors ([4]; 27 (BSC) or 26 (BTC) animals/group): 5 animals
- % of animals with ear duct tumors ([4]; AOM treated): 19 % of animals
- Body weights of animals fed experimental vs control diets ([5]; AOM or vehicle treated, in words): comparable
- Body wt, Initial (Wk 0) ([5]; AOM treated): 40 ± 3 g
- Body wt, wk 4 ([5]; AOM treated): 180 ± 10 g
- Body wt, wk 8 ([5]; AOM treated): 281 ± 18 g
- Body wt, wk 16 ([5]; AOM treated): 356 ± 21 g
- Body wt, wk 22 ([5]; AOM treated): 394 ± 22 g
- Body wt, wk 30 ([5]; AOM treated): 432 ± 24 g
- Body wt, wk 37 (at termination) ([5]; AOM treated): 459 ± 19 g
- Body wt, Initial (Wk 0) ([5]; Vehicle treated): 40 ± 3 g
- Body wt, wk 4 ([5]; Vehicle treated): 182 ± 10 g
- Body wt, wk 8 ([5]; Vehicle treated): 286 ± 18 g
- Body wt, wk 16 ([5]; Vehicle treated): 362 ± 21 g
- Body wt, wk 22 ([5]; Vehicle treated): 406 ± 22 g
- Body wt, wk 30 ([5]; Vehicle treated): 449 ± 24 g
- Body wt, wk 37 (at termination) ([5]; Vehicle treated): 470 ± 24 g
- Colon tumor incidence, Adenocarcinoma [6, 12]: 31 % of animals with tumors
- Colon tumor incidence, Adenoma [6, 12]: 62 % of animals with tumors
- Colon tumor incidence, Total (adenomas plus adenocarcinomas) [6, 12]: 69 % of animals with tumors
- Number of animals with colon tumors, Adenocarcinoma [6, 13]: 8 number of animals
- Number of animals with colon tumors, Adenoma [6, 13]: 16 number of animals
- Number of animals with colon tumors, Total [6, 13]: 18 number of animals
- Colon tumor multiplicity, Adenocarcinoma ([6]; 25 ppm in diet, Mean ± SD): 0.35 ± 0.4 no. of tumors/animals
- Colon tumor multiplicity, Adenoma ([6]; 25 ppm in diet, Mean ± SD): 1.27 ± 1.3 no. of tumors/animals
- Colon tumor multiplicity, Total ([6]; 25 ppm in diet, Mean ± SD): 1.62 ± 1.3 no. of tumors/animals
- Number of tumors per group, colon Adenocarcinoma ([6]; 25 ppm in diet, in parentheses): 9 number of tumors per group
- Incidence of total colon tumors (in words) ([6]; vs control diet): no differences in colon tumor incidences between the animals fed the control diet and BTC diet
- Death after AOM treatment ([7]; 2 wk after AOM treatment): One
- Evidence of toxicity in animals fed the diet [7]: no evidence of toxicity
- Small intestinal tumor incidence, Adenocarcinoma [8, 12]: 38 % of animals with tumors
- Small intestinal tumor incidence, Adenoma [8, 12]: 12 % of animals with tumors
- Small intestinal tumor incidence, Total [8, 12]: 38 % of animals with tumors
- Number of animals with small intestinal tumors, Adenocarcinoma [8, 13]: 10 number of animals
- Number of animals with small intestinal tumors, Adenoma [8, 13]: 3 number of animals
- Number of animals with small intestinal tumors, Total [8, 13]: 10 number of animals
- Small intestinal tumor multiplicity, Adenocarcinoma ([8]; 25 ppm in diet, Mean ± SD): 0.34 0.6 no. of tumors/animal
- Small intestinal tumor multiplicity, Adenoma ([8]; 25 ppm in diet, Mean ± SD): 0.12 0.3 no. of tumors/animal
- Small intestinal tumor multiplicity, Total ([8]; 25 ppm in diet, Mean ± SD): 0.46 0.6 no. of tumors/animal
- No. of animals with metastasis ([9]; 25 ppm in diet, AOM treated): 0 No. of animals
- AOM-induced metastasis (in words) ([9]; several organs): none of the animals in BSC and BTC diet groups developed metastasis

Compound: [Se] [selenium]
- Reproductive and teratogenic effects ([10]; animals and humans): Toxic reproductive and teratogenic effects
- Toxic chronic feeding level ([10]; chronic feeding, animals): 5 to 10 ppm

From patent publication US4988517A, “Method and composition for inhibiting colon carcinogenesis” (American Health Foundation, priority 1988, dated 1991)
